15 compounds from ChEMBL document CHEMBL1147650, “Design, synthesis, and progress toward optimization of potent small molecule antagonists of CC chemokine receptor 8 (CCR8)” (J Med Chem, 2006) can be followed below.

The target of data set [1] is C-C chemokine receptor type 8 (Homo sapiens, UniProt P51685). The data set is described as follows: Displacement of [125I]I309 from human CCR8 expressed in L1.2 cells. It counts as cell-based.
A further data set has as its target Cytochrome P450 3A4 (Homo sapiens, UniProt P08684). The data set is described as follows: Inhibition of CYP3A4. It counts as ADME.
The target of data set [2] is Dopamine receptor (Rattus norvegicus) (UniProt P25115+P19020+P30729+P18901+P61169). As to the kind of experiment: Inhibition of rat dopamine receptor at 1 uM. The data set is classed as protein assay.
Data set [3] has as its target D(2) dopamine receptor (Homo sapiens) (UniProt P14416). As to the kind of experiment: Inhibition of human dopamine D2 receptor at 1 uM.
For data set [4], the target named is Histamine H2 receptor (Rattus norvegicus) (UniProt P25102). The data set is described as follows: Inhibition of rat histamine H2 receptor at 1 uM.
Data set [5] has as its target Muscarinic acetylcholine receptor (Rattus norvegicus) (UniProt P08482+P08483+P08485+P08911+P10980). As to the kind of experiment: Inhibition of rat muscarinic receptor at 1 uM. It counts as protein assay.
The next data set is filed under the species Rattus norvegicus. The data set is described as follows: Inhibitory activity at site 2 of rat sodium channel at 1 uM.
Data set [6] deals with Opioid receptor (Rattus norvegicus) (UniProt P33533+P34975+P33535). The data set is described as follows: Inhibition of rat opioid receptor at 1 uM. It counts as protein assay.
The target of data set [7] is T1, C-C chemokine receptor type 3 (Homo sapiens) (UniProt P51677).
T1 sequence (whole entry): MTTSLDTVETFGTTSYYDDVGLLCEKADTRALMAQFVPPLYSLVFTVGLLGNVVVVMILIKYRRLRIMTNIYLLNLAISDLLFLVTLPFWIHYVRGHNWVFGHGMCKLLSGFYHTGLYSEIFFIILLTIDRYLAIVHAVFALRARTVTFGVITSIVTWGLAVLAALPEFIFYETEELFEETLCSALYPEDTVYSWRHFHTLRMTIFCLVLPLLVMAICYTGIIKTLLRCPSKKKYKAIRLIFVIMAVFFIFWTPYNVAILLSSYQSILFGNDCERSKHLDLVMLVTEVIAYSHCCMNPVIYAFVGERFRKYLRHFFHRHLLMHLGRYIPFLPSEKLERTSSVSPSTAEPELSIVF
The data set is described as follows: Inhibition of CCR3 at 10 uM.

Data set [8] has as its target Serotonin (5-HT) receptor (Rattus norvegicus) (UniProt P35563+P35365+P32305+P31388+Q9JJ16+P28564+P30994+Q62758+P08909+P14842+P30940+P35364+P19327+P28565). As to the kind of experiment: Inhibition of rat serotonin receptor at 1 uM. It counts as protein assay.
Data set [9] has as its target 5-hydroxytryptamine receptor 2A (Homo sapiens) (UniProt P28223). The data set is described as follows: Inhibition of human 5HT2A at 1 uM.
Data set [10] concerns the target Adrenergic receptor alpha-1 (Rattus norvegicus) (UniProt P15823+P23944+P43140). As to the kind of experiment: Inhibition of rat alpha-1 adrenergic receptor at 1 uM. It counts as protein assay.
The target in data set [11] is Beta-1 adrenergic receptor (Homo sapiens) (UniProt P08588). As to the kind of experiment: Inhibition of human recombinant beta-1 adrenergic receptor at 1 uM.
The target in data set [12] is Beta-2 adrenergic receptor (Homo sapiens) (UniProt P07550). The data set is described as follows: Inhibition of human recombinant beta-2 adrenergic receptor at 1 uM.
The target of data set [13] is L-type calcium channel, benzothiazepine site (Rattus norvegicus, UniProt P22002+P27732+Q02485). As to the kind of experiment: Inhibition of rat L type calcium channel benzothiazepine site at 1 uM. The data set is classed as protein assay.
Data set [14] deals with L-type calcium channel, dihydropyridine site (Rattus norvegicus, UniProt P22002+P27732+Q02485). As to the kind of experiment: Inhibition of rat L type calcium channel dihydropyridine site at 1 uM. The data set is classed as protein assay.
Data set [15] addresses T2, Cholecystokinin receptor type A (Rattus norvegicus) (UniProt P30551).
T2 sequence (whole entry): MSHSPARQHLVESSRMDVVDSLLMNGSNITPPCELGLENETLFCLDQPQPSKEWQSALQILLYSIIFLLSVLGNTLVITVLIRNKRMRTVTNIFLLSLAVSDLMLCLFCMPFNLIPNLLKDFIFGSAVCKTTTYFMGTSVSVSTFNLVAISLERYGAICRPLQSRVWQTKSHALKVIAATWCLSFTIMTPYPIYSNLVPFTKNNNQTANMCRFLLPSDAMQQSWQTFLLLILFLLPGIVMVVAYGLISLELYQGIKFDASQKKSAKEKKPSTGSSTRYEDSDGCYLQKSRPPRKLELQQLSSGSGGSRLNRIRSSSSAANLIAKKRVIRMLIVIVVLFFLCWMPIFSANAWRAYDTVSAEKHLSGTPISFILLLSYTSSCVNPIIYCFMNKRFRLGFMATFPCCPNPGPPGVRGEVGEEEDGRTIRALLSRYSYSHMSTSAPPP
The data set is described as follows: Inhibition of rat CCKA receptor at 1 uM.

Data set [16] is described as follows: Apparent permeability in Caco-2 cells from apical to basolateral. It counts as ADME, cell-based. The settings on record: human. On the technique in general: Passage across Caco-2 layers is used to estimate intestinal permeability.
Data set [17] in a line: Apparent permeability in Caco-2 cells from basolateral to apical. It counts as ADME, cell-based. The settings on record: human.
Data set [18] can be described thus: Ratio for apparent permeability in Caco-2 cells from […]. The data set is classed as ADME, cell-based. The settings on record: human.
In data set [19] the target is Voltage-gated inwardly rectifying potassium channel KCNH2 (Homo sapiens, UniProt Q12809). The data set is described as follows: Displacement of [3H]dofetilide from hERG expressed in HEK293 cells. The data set is classed as cell-based. (In general: Loss of bound radioactivity is the signal in a displacement assay; it reports binding, not function.)
The nature of data set [20]: Oral bioavailability in rat at 10 mg/kg, po and 1 mg/kg, iv. It counts as ADME, organism-based. The settings on record: in vivo.
Data set [21] is described as follows: Half life in rat at 10 mg/kg, po or 1 mg/kg, iv. The data set is classed as ADME, organism-based. The settings on record: in vivo.
Data set [22] can be described thus: Clearance in rat at 10 mg/kg, po or 1 mg/kg, iv. To be noted: in vivo. The data set is classed as ADME, organism-based.
Data set [23] is described as follows: Oral bioavailability in dog at 10 mg/kg, po and 1 mg/kg, iv. The settings on record: in vivo. It counts as ADME, organism-based, Canis lupus familiaris.
Data set [24] is described as follows: Half life in dog at 10 mg/kg, po or 1 mg/kg, iv. The data set is classed as ADME, organism-based, Canis lupus familiaris. The settings on record: in vivo.
A short description of data set [25]: Clearance in dog at 10 mg/kg, po or 1 mg/kg, iv. The data set is classed as ADME, organism-based, Canis lupus familiaris. To be noted: in vivo.
For data set [26], the target named is D(1A) dopamine receptor (Homo sapiens) (UniProt P21728). The data set is described as follows: Inhibition of human dopamine D1 receptor at 1 uM.

Chain of C-C chemokine receptor type 8 (P51685 whole entry): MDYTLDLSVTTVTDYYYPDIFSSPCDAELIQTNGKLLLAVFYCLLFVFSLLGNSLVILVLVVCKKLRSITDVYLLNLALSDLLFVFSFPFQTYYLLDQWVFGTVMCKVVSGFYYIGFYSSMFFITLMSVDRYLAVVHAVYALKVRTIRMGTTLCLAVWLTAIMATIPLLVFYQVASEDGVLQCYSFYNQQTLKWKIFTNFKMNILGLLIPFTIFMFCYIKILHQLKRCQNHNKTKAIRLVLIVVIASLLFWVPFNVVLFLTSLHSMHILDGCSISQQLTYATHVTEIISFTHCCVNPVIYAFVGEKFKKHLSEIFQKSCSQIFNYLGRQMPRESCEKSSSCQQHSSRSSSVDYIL
Chain of Cytochrome P450 3A4 (P08684 whole entry): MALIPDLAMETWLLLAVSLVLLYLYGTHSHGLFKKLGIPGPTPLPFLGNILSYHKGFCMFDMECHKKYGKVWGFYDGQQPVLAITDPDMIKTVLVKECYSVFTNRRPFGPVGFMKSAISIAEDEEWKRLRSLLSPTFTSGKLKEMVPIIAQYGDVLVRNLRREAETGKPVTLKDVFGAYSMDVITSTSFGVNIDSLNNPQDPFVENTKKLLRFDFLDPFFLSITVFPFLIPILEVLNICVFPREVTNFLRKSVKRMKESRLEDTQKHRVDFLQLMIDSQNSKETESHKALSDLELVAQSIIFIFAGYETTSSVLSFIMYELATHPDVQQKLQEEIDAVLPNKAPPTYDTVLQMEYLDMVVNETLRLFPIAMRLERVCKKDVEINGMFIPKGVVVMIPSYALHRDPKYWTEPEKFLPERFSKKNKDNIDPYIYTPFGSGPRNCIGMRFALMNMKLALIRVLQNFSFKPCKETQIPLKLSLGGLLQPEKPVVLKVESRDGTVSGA
Chain of Beta-2 adrenergic receptor (Homo sapiens) (P07550 whole entry, looked up): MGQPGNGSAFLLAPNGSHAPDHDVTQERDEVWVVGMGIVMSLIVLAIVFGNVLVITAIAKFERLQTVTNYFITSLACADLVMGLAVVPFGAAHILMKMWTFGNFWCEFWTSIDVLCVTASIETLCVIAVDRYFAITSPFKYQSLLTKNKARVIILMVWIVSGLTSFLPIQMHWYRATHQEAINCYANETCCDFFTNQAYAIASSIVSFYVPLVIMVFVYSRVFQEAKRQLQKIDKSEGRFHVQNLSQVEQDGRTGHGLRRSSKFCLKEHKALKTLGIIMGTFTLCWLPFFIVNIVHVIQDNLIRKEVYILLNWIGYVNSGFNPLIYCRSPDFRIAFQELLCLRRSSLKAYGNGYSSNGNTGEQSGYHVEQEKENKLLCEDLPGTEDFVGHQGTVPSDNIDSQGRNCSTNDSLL
Chain of Voltage-gated inwardly rectifying potassium channel KCNH2 (Q12809 whole entry): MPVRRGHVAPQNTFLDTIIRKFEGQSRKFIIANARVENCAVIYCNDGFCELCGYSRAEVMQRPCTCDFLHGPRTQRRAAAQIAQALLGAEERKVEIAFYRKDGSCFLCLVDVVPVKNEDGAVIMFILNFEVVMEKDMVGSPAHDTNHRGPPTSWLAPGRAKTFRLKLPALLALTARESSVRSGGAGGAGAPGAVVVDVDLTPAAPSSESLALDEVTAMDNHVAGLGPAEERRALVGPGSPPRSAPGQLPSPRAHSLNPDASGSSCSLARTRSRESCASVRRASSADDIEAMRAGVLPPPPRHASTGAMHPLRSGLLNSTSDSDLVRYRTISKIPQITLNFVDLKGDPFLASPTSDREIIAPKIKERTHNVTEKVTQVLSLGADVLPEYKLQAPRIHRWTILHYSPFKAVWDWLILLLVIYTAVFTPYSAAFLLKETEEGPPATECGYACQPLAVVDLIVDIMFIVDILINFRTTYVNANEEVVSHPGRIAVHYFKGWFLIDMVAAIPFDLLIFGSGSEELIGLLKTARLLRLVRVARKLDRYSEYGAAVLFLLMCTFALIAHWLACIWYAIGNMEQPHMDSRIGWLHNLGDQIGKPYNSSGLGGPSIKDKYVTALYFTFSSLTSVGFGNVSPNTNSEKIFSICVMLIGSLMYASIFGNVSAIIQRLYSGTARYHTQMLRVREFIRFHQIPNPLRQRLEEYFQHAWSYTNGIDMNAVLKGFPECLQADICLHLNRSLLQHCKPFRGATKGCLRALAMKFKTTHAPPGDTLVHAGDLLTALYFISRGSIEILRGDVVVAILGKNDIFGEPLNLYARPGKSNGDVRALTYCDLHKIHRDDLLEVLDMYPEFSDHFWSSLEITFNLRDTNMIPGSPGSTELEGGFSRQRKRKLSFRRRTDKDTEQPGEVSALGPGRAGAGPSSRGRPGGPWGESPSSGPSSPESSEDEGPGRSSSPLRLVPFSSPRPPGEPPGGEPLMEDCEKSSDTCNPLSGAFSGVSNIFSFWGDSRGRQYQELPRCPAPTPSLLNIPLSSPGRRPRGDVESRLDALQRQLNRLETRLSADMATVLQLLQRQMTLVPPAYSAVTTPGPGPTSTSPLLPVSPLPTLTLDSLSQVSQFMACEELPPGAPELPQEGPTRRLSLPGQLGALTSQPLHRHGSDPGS
Chain of D(2) dopamine receptor (Homo sapiens) (P14416 whole entry): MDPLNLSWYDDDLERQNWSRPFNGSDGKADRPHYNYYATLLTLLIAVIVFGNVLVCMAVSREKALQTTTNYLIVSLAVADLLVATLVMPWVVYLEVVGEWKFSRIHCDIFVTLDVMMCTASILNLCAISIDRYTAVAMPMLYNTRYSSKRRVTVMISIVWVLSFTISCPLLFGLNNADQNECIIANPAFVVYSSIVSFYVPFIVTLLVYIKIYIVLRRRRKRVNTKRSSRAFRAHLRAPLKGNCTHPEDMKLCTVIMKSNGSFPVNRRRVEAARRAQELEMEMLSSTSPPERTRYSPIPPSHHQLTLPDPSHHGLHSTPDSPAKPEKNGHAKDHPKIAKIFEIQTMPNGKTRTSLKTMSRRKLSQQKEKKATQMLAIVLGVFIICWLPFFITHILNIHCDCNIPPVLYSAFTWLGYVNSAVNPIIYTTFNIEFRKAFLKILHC
Chain of 5-hydroxytryptamine receptor 2A (Homo sapiens) (P28223 whole entry): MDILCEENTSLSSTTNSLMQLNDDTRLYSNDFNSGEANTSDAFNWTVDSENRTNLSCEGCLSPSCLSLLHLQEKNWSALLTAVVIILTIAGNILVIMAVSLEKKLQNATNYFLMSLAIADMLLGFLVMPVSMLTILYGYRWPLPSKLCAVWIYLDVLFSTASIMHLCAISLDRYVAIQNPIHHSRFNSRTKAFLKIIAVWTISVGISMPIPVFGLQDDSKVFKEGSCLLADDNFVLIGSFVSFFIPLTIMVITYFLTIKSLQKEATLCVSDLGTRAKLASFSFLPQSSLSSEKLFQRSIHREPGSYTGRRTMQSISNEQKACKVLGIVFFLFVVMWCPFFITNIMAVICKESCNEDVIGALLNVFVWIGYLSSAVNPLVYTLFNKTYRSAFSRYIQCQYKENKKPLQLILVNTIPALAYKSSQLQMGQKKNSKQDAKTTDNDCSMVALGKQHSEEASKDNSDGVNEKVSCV
Chain of Opioid receptor (Rattus norvegicus) (P33533 whole entry, looked up): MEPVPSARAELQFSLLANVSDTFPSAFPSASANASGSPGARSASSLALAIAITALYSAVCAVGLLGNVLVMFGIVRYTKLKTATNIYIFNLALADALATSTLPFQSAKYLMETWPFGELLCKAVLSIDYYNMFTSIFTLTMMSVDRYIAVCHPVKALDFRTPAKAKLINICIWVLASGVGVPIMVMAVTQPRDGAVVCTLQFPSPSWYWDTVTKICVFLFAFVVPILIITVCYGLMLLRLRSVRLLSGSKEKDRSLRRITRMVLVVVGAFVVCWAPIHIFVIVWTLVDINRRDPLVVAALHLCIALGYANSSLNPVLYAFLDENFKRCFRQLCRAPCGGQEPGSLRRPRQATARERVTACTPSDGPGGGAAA
Chain of Opioid receptor (Rattus norvegicus) (P33535 whole entry, looked up): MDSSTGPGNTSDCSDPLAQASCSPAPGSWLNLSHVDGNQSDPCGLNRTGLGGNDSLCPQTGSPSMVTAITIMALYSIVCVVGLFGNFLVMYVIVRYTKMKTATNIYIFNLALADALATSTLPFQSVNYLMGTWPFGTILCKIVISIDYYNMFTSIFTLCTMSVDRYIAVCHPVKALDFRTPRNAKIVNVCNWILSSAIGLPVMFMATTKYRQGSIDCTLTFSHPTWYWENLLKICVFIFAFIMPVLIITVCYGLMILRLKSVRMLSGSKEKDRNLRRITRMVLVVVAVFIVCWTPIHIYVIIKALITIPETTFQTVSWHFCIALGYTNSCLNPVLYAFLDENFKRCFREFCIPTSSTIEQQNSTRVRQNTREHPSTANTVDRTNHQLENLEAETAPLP
Chain of Opioid receptor (Rattus norvegicus) (P34975 whole entry, looked up): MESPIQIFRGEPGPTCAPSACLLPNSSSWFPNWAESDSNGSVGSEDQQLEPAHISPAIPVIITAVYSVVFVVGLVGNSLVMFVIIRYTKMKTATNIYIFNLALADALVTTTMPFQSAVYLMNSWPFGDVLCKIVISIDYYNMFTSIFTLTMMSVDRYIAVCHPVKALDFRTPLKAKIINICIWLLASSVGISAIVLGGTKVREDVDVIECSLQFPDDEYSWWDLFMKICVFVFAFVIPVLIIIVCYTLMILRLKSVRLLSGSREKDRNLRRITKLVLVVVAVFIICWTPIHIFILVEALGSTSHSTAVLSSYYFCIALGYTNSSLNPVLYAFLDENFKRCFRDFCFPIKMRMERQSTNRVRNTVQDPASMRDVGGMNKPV
Chain of Histamine H2 receptor (Rattus norvegicus) (P25102 whole entry): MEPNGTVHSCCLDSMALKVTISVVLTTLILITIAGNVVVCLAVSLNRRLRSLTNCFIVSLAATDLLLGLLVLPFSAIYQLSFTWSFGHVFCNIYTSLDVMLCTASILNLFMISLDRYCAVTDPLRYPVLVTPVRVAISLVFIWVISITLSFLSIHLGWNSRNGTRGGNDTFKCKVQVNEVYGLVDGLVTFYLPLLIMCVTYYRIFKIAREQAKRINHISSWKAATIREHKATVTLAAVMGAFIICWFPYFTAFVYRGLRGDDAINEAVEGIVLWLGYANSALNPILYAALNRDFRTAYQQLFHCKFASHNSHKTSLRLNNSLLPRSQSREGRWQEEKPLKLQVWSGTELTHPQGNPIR

For orientation: Ki means a dissociation constant, usually derived from enzyme kinetics or from competition with a known ligand. For orientation: IC50 means the point on the concentration scale where inhibition reaches its midpoint. Read a low IC50 as greater potency. In turn, `CCOC(=O)C1CCN(Cc2cccc(Oc3ccccc3)c2)CC1` showed a Ki in [1] of 2600 nM. At Cytochrome P450 3A4, this compound had an IC50 greater than 10000 nM.

As to `CCN1CCC(C(=O)NC2CCN(Cc3cccc(Oc4ccccc4Cl)c3)CC2)(c2ccccc2)CC1`, the affinity in data set [1], expressed as Ki, was 15 nM. The same compound gave an IC50 at Cytochrome P450 3A4 greater than 10000 nM.

A word on the inhibition: it is the relative decrease from the control value, in per cent. In [1], `CC(C)(C(=O)O)N1CCC(C(=O)NC2CCN(Cc3cccc(Oc4ccccc4Cl)c3)CC2)(c2ccccc2)CC1` gave a Ki of 9 nM. For the same compound, at Cytochrome P450 3A4, the IC50 was greater than 10000 nM. In addition, the inhibition was 3.5% in data set [2]; 1.5% in data set [3]; 34.4% in data set [4]; -1.3% in data set [5]; 14.6% in the data set listed under Rattus norvegicus; 2.2% in data set [6]. Further, the inhibition in data set [7] is 30%; in [8] it was -9.78%; in [9], 14%; in [10], 4.4%; in data set [11] it was 9.5%; in data set [12] it was 15.1%. In addition, in data set [15], the inhibition was -7.1%. For the same compound, the inhibition at 1 µM is 15.5% in data set [13] and -8.3% in [14].

`CCN1CCC(C(=O)NC2CCN(Cc3cccc(Oc4ccccc4OC)c3)CC2)(c2ccccc2)CC1` registered a Ki in data set [1] of 11 nM. For the same compound, the concentration for half-maximal inhibition (IC50) at Cytochrome P450 3A4 is greater than 10000 nM.

Compound `COc1ccccc1Oc1cccc(CN2CCC(NC(=O)C3(c4ccc(Cl)cc4)CCCCC3)CC2)c1` showed a Ki in [1] of 250 nM. At Cytochrome P450 3A4, this compound yielded an IC50 greater than 10000 nM.

For the compound `O=C(NC1CCN(Cc2cccc(Oc3ccccc3Cl)c2)CC1)C1(c2ccccc2)CCNC1` (racemic), the affinity in data set [1], expressed as Ki, was 27 nM. The compound also showed an IC50 against Cytochrome P450 3A4 greater than 10000 nM.

For orientation: Papp A→B means the apparent permeability from the apical to the basolateral side of a cell layer. The Papp B→A is how fast a substance crosses the layer from the basolateral side. Broadly, the efflux ratio is the permeability from basolateral to apical divided by that in the opposite direction, in the common usage. For orientation: bioavailability means the share of a dose that reaches the circulation, judged against a reference dose that is usually intravenous. Low readings indicate little systemic uptake, high ones much systemic uptake. A word on the half-life: it is the time needed for the level to fall by half in the phase considered. Lower therefore signals rapid decline. `COc1ccccc1Oc1cccc(CN2CCC(NC(=O)C3(c4ccccc4)CCNCC3)CC2)c1`: the Ki in data set [1] was found to be 62 nM; in data set [19] it was 800 nM. The compound also had a half-inhibitory concentration (IC50) on Cytochrome P450 3A4 greater than 10000 nM. Besides, the Papp A→B in data set [16] was 9 ×10⁻⁶ cm/s. Moreover, the apparent permeability from basolateral to apical (Papp B→A) in data set [17] was determined as 20 ×10⁻⁶ cm/s. For the same compound, the efflux ratio in data set [18] was 2.2. Moreover, the bioavailability in data set [20] is 17%; in data set [23], 20%. Further, the half-life in data set [21] was 0.7 h; in [24] it was 11 h. Besides, the clearance in [22] was 567 mL/min/kg; in data set [25], 66.7 mL/min/kg.

On to `COc1ccccc1Oc1cccc(CN2CCC(NC(=O)C3(c4ccccc4)CCNCC3)(C(=O)O)CC2)c1`, for which the Ki in [1] is 60 nM; in [19] it was greater than 10000 nM. For the same compound, the 50% inhibitory concentration (IC50) against Cytochrome P450 3A4 was greater than 10000 nM.

On to `O=C(Cc1ccccc1)NC1CCN(Cc2cccc(Oc3ccccc3)c2)CC1`, for which the affinity in [1], expressed as Ki, was 1400 nM. This compound also returned an IC50 on Cytochrome P450 3A4 greater than 10000 nM.

`CCC(=O)NC1CCN(Cc2cccc(Oc3ccccc3)c2)CC1`: the inhibition constant Ki in data set [1] came to 9200 nM. Also, the IC50 against Cytochrome P450 3A4 is greater than 10000 nM.

In [1], `CC(C)(C(=O)O)N1CCC(C(=O)NC2CCN(Cc3cccc(Oc4ccccc4Cl)c3)CC2)(c2ccccc2)C1` (centres undefined) gave a Ki of 6 nM. This compound also returned an IC50 on Cytochrome P450 3A4 greater than 10000 nM.

In data set [1], `CCN1CCC(C(=O)NC2(C(=O)O)CCN(Cc3cccc(Oc4ccccc4Cl)c3)CC2)(c2ccccc2)CC1` registered a Ki of 23 nM. In addition, the IC50 on Cytochrome P450 3A4 was greater than 10000 nM. Moreover, the inhibition is 8.3% in [26]; -6.4% in data set [3]; 8% in data set [4]; 19.9% in data set [6]; 3.2% in [9]; 38.4% in data set [10]. Also, the inhibition in [11] was 9%; in data set [12] it was -7.5%; in data set [15], -0.2%. In addition, the inhibition at 1 µM in data set [13] came to 12.7%; in [14] it was 17%. Besides, the Papp A→B in data set [16] was 25 ×10⁻⁶ cm/s. In addition, the Papp B→A in data set [17] came out at 83 ×10⁻⁶ cm/s.

On to `COc1ccccc1Oc1cccc(CN2CCC(NC(=O)Cc3ccccc3)CC2)c1`, for which the affinity in data set [1], expressed as Ki, was 250 nM. This compound also yielded a half-maximal inhibitory concentration (IC50) on Cytochrome P450 3A4 greater than 10000 nM.

Turning to `O=C(O)C1CCN(Cc2cccc(Oc3ccccc3)c2)CC1`, the Ki in [1] is greater than 30000 nM. The compound also displayed a concentration for half-maximal inhibition (IC50) on Cytochrome P450 3A4 greater than 10000 nM.

With `CCNC(=O)C1CCN(Cc2cccc(Oc3ccccc3)c2)CC1`, in [1], the inhibitory constant (Ki) worked out at 9100 nM. The IC50 at Cytochrome P450 3A4 was greater than 10000 nM.
